Measurements: patent US11389465B2, “Phosphorylated hexaacyl disaccharides (PHADs) for treating or preventing infections” (VANDERBILT UNIVERSITY, priority 2017, dated 2022)
Entries after “also recorded” stand apart in the source; their conditions may differ.

Key:
P. aeruginosa = settings: head to head with MPLA, 20 μg/mouse
[1] = test system: Gram negative and Gram positive bacterial infections; settings: mice primed with LPS; cited from earlier work

Compound	efficacy at augmenting host resistance to bacterial infection compared with MPLA (P. aeruginosa)	resistance to infection of primed mice [1]
CCCCCCCCCCCCCC(=O)OC(CCCCCCCCCCC)CC(=O)NC1C(OCC2OC(O)C(NC(=O)CC(O)CCCCCCCCCCC)C(O)C2O)OC(CO)C(OP(=O)(O)O)C1OC(=O)CC(CCCCCCCCCCC)OC(=O)CCCCCCCCCCCCC.N (stereo not shown) [3D-PHAD, 3-deacyl phosphorylated hexaacyl disaccharide]	as effective as MPLA; also recorded: as efficacious as MPLA	
CCCCCCCCCCCCCC(=O)OC(CCCCCCCCCCC)CC(=O)NC1C(OCC2OC(O)C(NC(=O)CC(O)CCCCCCCCCCC)C(OC(=O)CC(O)CCCCCCCCCCC)C2O)OC(CO)C(OP(=O)(O)O)C1OC(=O)CC(CCCCCCCCCCC)OC(=O)CCCCCCCCCCCCC.N (stereo not shown) [PHAD, phosphorylated hexaacyl disaccharide]	as effective as MPLA	
Lipopolysaccharide [LPS]		improved resistance to Gram negative and Gram positive bacterial infections
CCCCCCCCCCCCCC(=O)OC(CCCCCCCCCCC)CC(=O)NC1C(O)OC(COC2OC(CO)C(OP(=O)(O)O)C(OC(=O)CC(CCCCCCCCCCC)OC(=O)CCCCCCCCCCCCC)C2NC(=O)CC(CCCCCCCCCCC)OC(=O)CCCCCCCCCCCCC)C(O)C1O.N (stereo not shown) [3D(6-acyl) PHAD, 3-D (6-acyl) phosphorylated hexaacyl disaccharide]	as effective as MPLA	
